The target in assay [1] is T1, the receptor (Homo sapiens, UniProt Q03431).
T1 sequence (Q03431 27-593): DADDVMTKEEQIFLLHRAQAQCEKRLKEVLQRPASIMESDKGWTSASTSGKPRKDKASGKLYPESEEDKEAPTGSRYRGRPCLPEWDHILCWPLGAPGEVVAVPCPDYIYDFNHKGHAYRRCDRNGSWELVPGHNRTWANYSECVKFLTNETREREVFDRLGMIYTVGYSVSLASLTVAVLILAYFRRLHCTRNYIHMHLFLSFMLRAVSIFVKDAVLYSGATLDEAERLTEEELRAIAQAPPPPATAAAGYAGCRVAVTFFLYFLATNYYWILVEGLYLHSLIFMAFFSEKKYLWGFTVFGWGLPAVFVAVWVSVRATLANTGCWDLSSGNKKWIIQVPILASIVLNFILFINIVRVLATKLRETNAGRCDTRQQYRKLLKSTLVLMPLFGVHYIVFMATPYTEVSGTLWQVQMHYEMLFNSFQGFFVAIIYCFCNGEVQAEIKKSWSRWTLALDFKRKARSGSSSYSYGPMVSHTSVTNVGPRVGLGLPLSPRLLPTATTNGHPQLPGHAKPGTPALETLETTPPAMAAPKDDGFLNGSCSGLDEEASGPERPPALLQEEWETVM
Conditions: cited from earlier work.

Assay [2] relates to AC. The following applies: cited from earlier work.
For assay [3], the target named is T2, rat PTH-1 receptor (Rattus norvegicus, UniProt P25961).
T2 construct: host or cells: CHO cells
T2 sequence (P25961 27-591): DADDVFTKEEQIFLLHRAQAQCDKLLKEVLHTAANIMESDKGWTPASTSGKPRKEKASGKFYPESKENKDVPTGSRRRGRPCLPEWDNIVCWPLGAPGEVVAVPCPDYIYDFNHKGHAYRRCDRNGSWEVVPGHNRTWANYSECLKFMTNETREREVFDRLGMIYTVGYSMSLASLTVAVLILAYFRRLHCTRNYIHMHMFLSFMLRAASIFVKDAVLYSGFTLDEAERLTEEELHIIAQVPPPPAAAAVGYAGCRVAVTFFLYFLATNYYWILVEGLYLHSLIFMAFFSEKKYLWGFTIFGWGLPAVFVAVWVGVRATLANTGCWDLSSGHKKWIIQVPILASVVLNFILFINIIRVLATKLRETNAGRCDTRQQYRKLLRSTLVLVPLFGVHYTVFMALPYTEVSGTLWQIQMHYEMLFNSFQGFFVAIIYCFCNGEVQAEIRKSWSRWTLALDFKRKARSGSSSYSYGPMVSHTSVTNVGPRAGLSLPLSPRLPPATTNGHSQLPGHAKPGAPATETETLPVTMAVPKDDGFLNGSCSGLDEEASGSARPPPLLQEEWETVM
Conditions: CHO cells expressing the cloned rat PTH-1 receptor; cited from earlier work.

For assay [4], the target named is T3, hP1r-de1NT (Homo sapiens, UniProt Q03431).
T3 construct: expressed in transfected cells; host or cells: COS-7 cells, transient, DEAE-dextran
T3 sequence (Q03431 with tags, fused parts or gaps): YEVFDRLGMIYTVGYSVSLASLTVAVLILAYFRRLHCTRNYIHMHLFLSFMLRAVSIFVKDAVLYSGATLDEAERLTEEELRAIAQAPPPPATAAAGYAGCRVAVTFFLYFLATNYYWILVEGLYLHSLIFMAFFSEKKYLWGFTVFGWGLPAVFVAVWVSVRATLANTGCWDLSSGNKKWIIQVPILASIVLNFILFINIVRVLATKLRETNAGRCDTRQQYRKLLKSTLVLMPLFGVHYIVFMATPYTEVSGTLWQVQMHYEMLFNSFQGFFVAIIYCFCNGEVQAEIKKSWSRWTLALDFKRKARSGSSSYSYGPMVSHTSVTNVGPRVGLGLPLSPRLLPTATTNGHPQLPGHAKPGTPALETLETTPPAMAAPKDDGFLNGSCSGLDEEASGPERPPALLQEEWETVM
As to the kind of experiment: Q-PTH(1–34) cAMP dose-response, COS-7 cells expressing hP1R-delNT. Format: cell-based. On the procedure:
(§1) Cell Culture: COS-7 cells were cultured at 37° C. in T-75 flasks ([…] in Dulbecco's modified Eagle's medium (DMEM) supplemented with fetal bovine serum (10%), penicillin G (20 units/ml), streptomycin sulfate (20 μg/ml) and amphotericin B (0.05 μg/ml) in a humidified atmosphere containing 5% CO2. Cells were sub-cultured in 24-well plates and, when confluent, were treated with fresh media and shifted to 33° C. for 12 to 24 h prior to the assay (Bergwitz, C., et al., J. Biol. Chem. 272:28861–28868 (1997); Abell, A., et al., J. Biol. Chem. 271:4518–4527 (1996)).
(§2) PTH Receptor mutagenesis and COS-7 cell expression: The pcDNA-1-based plasmid encoding the intact HPTH-1 receptor (HK-WT in reference (Schipani, E., et al., Endocrinol. 132:2157–2165 (1993)) and herein called hP1R-WT) was used for studies in COS-7 cells. The truncated human PTH-1 receptor (hP1R-de1Nt) (FIG. 18) was constructed from the HK-WT plasmid by oligonucleotide-directed mutagenesis (Kunkel, T. A., Proc. Natl. Acad. Sci. USA 82:488–492 (1985)). […]
(§3) cAMP Stimulation: Stimulation of cells with peptide analogs was performed in 24-well plates. […] The cAMP content of the diluted lysate was determined by radioimmunoassay.

The target in assay [5] is T4, hP1R-Tether(1–9) (Homo sapiens, UniProt Q03431).
T4 construct: expressed in transfected cells; host or cells: COS-7 cells, transient, DEAE-dextran
T4 sequence (Q03431 with tags, fused parts or gaps): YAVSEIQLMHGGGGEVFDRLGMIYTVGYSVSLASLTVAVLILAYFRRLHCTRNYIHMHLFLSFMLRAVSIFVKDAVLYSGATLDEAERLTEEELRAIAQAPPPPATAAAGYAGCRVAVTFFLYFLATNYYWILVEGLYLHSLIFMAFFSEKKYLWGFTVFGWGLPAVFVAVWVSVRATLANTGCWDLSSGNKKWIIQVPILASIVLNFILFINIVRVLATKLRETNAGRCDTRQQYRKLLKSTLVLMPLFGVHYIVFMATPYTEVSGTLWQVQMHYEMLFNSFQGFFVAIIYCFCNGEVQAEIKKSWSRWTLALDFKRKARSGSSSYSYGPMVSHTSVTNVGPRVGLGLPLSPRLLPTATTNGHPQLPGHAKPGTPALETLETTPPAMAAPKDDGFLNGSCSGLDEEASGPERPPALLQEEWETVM
Kind of assay: Q-PTH(1–34) cAMP dose-response, COS-7 cells expressing hP1R-Tether(1–9). Format: cell-based. As to the method:
as §1, §2, §3

The target in assay [6] is T5, hP1R-[R^11]-Tether(1–11) (Homo sapiens, UniProt Q03431).
T5 construct: expressed in transfected cells; host or cells: COS-7 cells, transient, DEAE-dextran
T5 sequence (Q03431 with tags, fused parts or gaps): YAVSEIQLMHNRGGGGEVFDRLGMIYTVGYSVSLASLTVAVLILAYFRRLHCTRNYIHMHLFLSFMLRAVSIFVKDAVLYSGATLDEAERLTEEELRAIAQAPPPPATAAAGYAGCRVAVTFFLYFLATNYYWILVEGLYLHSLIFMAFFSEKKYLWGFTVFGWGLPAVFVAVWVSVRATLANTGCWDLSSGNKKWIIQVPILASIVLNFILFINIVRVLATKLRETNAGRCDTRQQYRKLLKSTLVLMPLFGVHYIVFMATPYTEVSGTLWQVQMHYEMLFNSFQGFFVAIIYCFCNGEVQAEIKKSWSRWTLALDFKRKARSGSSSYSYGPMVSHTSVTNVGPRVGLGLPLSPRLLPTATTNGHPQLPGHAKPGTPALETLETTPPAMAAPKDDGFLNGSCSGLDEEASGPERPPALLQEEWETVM
Kind of assay: Q-PTH(1–34) cAMP dose-response, COS-7 cells expressing hP1R-[R11]-Tether(1–11). The class given is cell-based. As to the method: as §1, §2, §3

Assay [7] has as its system hP1R-Tether constructs. As to the kind of experiment: Q-PTH(1–34) cAMP stimulation of the hP1R-Tether constructs and alanine mutants in COS-7 cells. The class given is cell-based, human. On the procedure:
as §1, §2, §3

The subject of assay [8] is rat renal membranes. The following applies: cited from earlier work.

Take PTH(15–34): in assay [1], the “binding to the receptor” value is given as “binds weakly”. Also, in assay [2], the “activation of AC” value is recorded as “does not activate AC”.

For “PTHrP(1–16) (AVSEHQLLHDKGKSIQ; Parathyroid hormone-related protein; UniProt P12272 37-52, looked up, fragment) [short NH2-terminal PTHrP peptide investigated previously]”, the “activity in AC assays” value in assay [3] was “inactive”.

Turning to “[Ala^1,3,10,12,Arg^11, Tyr^34]hPTH(1–34)NH2 [Q-PTH(1–34)]”, the “cAMP dose-response relative to the intact wildtype receptor” value in assay [4], in assay [5] and in assay [6] was “right-shifted response” in each case. Besides, the “maximum cAMP response” value in assay [4], in assay [5] and in assay [6] was “capable of producing a maximum cAMP response” throughout. Moreover, the “dose-response curves for the hP1R-Tether constructs relative to hP1R-de1NT” value in assay [7] was “parallel and left-shifted”. Also, the “cAMP response of the alanine mutants of hP1R-[R11]-Tether(1–11) to exogenous ligand” value in assay [7] (alanine scan mutants) is listed as “responded well”.

Take “bPTH(1–12) (AVSEIQFMHNLG; Parathyroid hormone; UniProt P01268 32-43, looked up, fragment) [short NH2-terminal PTH peptide investigated previously]”: the “activity in adenylyl cyclase assays” value in assay [8] is “inactive”.
